Reference: patent US10736973B2, “Glucose analogs for diagnosis states” (TECHNOLOGY INNOVATION MOMENTUM FUND (ISRAEL) LIMITED …, priority 2014, dated 2020)

How the values were obtained:
[1] = rat, in vivo; cited from earlier work
[2] = CEST NMR of 10 mM glucose analog solutions (MTRasym); format: physicochemical; details: pH 6.3-7.8 tested, 1.2 ppm, T=25° C., 11.7 T
Procedure: (§1) • Chemicals and Media: 3OMG, D-glucose, D-glucose 6 phosphate, 2-DG and 2-DG-6P sodium salt were obtained from Sigma-Aldrich, Israel; FDG was obtained from Carbosynth Limited, UK. The glucose analogs were prepared at concentration of 10 mM (pH=7.5), containing 10% D2O for NMR field locking. • Cells: DA3-D1-DMBA-3 is a cell line derived from a poorly differentiated mammary adenocarcinoma induced in BALB/C mice by dimethylbenzanthracene. • Animals: BALB/C female mice were purchased and kept in the breeding facility of the Sackler School of Medicine, Tel Aviv University. To induce orthotropic tumors in mice, DA3 cells were injected into the lower left mammary gland of 8 week old (17-22 gr) female BALB/c mice (5×10^5 cells in 100 μL saline). […] Each sample was dissolved in 0.5 ml D2O (99.98%, Biolab, Israel), adjusted at pH=6.5-7 and inserted into 5 mm tube for NMR. • NMR Spectroscopy: 1H NMR Spectra were recorded at 500 MHz in 5 mm tubes on a Bruker 500 MHz DRX with the following parameters: spectral width 7500 Hz, pulse width 5.5 us (corresponding to a 45° flip angle); data size 16 K; relaxation delay 10 s; number of scans=16. […] The chemical exchange contrast was measured by magnetization transfer asymmetry, MTRasym. […]

[3] = in vivo; cited from earlier work
DA3 mammary tumors = test: In vivo CEST MRI of DA3 mammary tumor bearing mice; design: species or system BALB/c mice
Procedure: CEST MRI experiments were performed on a Bruker 7T Biospec scanner with 30 cm bore size on implanted xenograph mammary tumors of mice before and following the injection of the glucose analog 3OMG. DA3 tumor bearing mice that were allowed to grow for 10-14 days, with an average tumor volume of 5 mm^3 were scanned. The mice were anesthetized using isoflurane (1-2%) and scanned with surface coil. Their temperature was monitored and maintained at 37° C. We performed i.p injections of the contrast medium, 3OMG (in saline, pH=7.4).
Images were generated as follows: a series of gradient-echo images were collected from a single 1 mm axial slice of (acquisition matrix 128×64, field of view of 40×40 mm2) after 1.2 s presaturation pulse of 2.5 μT (106 Hz) at ±1.2 ppm from the water signal. For the MTRasym plot, the mean intensities were used within the selected region of interest (ROI) within the tumor.
Having determined in vitro that 3OMG concentrations of only a few millimolar could be detected with CEST method (FIGS. 1-4), the determination of the potential use of 3OMG CEST MRI to image mammary tumors, in vivo, was carried out. Thus performed 3OMG CEST MRI experiments were carried out on mice bearing DA3 tumors injected with 3OMG glucose analog. Tumor anatomy was initially imaged using T2 weighted spin echo sequence (RARE).

DA3 tumors = test: CEST NMR of MCW extracts of tumors from treated mice; format: in vivo, BALB/C mice; details: 25 min after 1.5 g/kg; compared with D-glu; B1=2.5 μT, pH=7.0, T=25° C., 11.7 T
Procedure: as §1

hexokinase = details: cited from earlier work

| pH at which the CEST effect has its maximum [2] | Compound | Toxic high concentration [1] | Toxicity [1] | Excretion [3] | CEST enhancement (% CEST increase) in the tumor (DA3 mammary tumors; i.p. injection 1.5 g/kg, 7T, ±1.2 ppm, 2.5 μT) | Time after which the enhanced tumor CEST MRI image started to decay (DA3 mammary tumors; injection 1.5 g/kg) | CEST effect in other organs (apart from the urinary bladder) (DA3 mammary tumors; injection 1.5 g/kg, throughout the MRI scans session) | CEST effect for the peak at 1.2 ppm in combined tumor extracts (DA3 tumors) | Phosphorylation (hexokinase) | Substrate for hexokinase (hexokinase) |
| --- | --- | --- | --- | --- | --- | --- | --- | --- | --- | --- |
|  | O=CC[C@@H](O)[C@H](O)[C@H](O)CO [2-DG, 2-deoxy-D-glucose] | 3 g/kg | toxic at high concentrations |  |  |  |  |  |  |  |
| ~7.5 | CO[C@@H]([C@H](O)[C@H](O)CO)[C@@H](O)C=O [3OMG, 3-O-methylglucose] |  |  | entirely excreted by the kidneys | about 20% | > 20 min | did not show any significant CEST effect | significantly high | does not undergo phosphorylation | does not serve as substrate |
|  | O=C[C@H](F)[C@@H](O)[C@H](O)[C@H](O)CO [FDG, 2-fluoro-deoxy-D-glucose] |  | toxic at high concentrations |  |  |  |  |  |  |  |
